Results from US20260306476A1, “ANTIBACTERIAL COMPOUND PBT2” (priority 2022, published 2026).

Assays:
[1] = tested on: Neisseria gonorrhoeae strain WHO Z; conditions: strain phenotype; cited from earlier work
Neisseria gonorrhoeae = test: Antibiotic resistance development test over 30 days; format: cell-based; conditions: control; 30 days of treatment
Method: FIG. 2: Antibiotic resistance development assay of PBT2.
Resistance development was tested over a 30 day period with PBT2 and using Kanamycin as a control.

[2] = tested on: Streptococcus uberis (S. uberis); conditions: in the absence of an antibiotic; cited from earlier work
[3] = tested on: erythromycin-resistant group A Streptococcus (GAS); conditions: in the absence of an antibiotic; cited from earlier work
[4] = tested on: methicillin-resistant Staphylococcus aureus (MRSA); conditions: in the absence of an antibiotic; cited from earlier work
[5] = tested on: vancomycin-resistant Enterococcus (VRE); conditions: in the absence of an antibiotic; cited from earlier work
[6] = tested on: Neisseria gonorrhoeae strain WHO Z; test: Ex vivo Neisseria gonorrhoeae infection of human cervical (Pex) cells; format: cell-based
Source text: FIG. 4: Chart indicating PBT2 can cure Neisseria gonorrhoeae infection of human cervical (Pex) cells. […] Ceftriaxone (CRO, positive control) is currently recommended for gonorrhoea treatment. Veh—0.1% DMSO vehicle control; UT—untreated; * p<0.0001 versus vehicle for CRO or PBT2 treatment.
To assess the ability of PBT2 to cure an established gonococcal infection in a human ex vivo system, primary human cervical epithelial (Pex) cells were challenged with Neisseria gonorrhoeae strain WHO Z for 90 min and then treated with 0.1% DMSO (vehicle control), PBT2 (0.016 mg/L to 4.695 mg/L), or ceftriaxone (0.5 mg/L, positive control) for 24 h. Viable gonococci were then enumerated. […] PBT2-induced Pex cell cytotoxicity was not observed during the assay.

[7] = tested on: Neisseria gonorrhoeae strain WHO Z; test: MIC of Triton X-100 with/without PBT2; format: cell-based
Source text: Without wishing to be bound by theory, the inventors hypothesise that this may due to the fact PBT2 is a derivative of the iron chelator clioquinol and PBT2 has the capacity to chelate a range of heavy metals including iron. Genes encoding metal homeostasis proteins (blue dots) are presented in the volcano plot (FIG. 3). Metal homeostasis was previously identified as a crucial feature of gonococcal biology, and therefore it is postulated this may be an “Achilles' heel” with respect to Neisseria gonorrhoeae ionophore sensitivity. […] MpeR is an iron-repressed, AraC-like protein that regulates the mtr efflux locus (involved in antimicrobial susceptibility) in Neisseria gonorrhoeae. Up-regulation of mpeR (e. g. by PBT2) down-regulates MtrF and, in turn, would increase Neisseria gonorrhoeae sensitivity to the antimicrobial detergent, Triton X-100 (22). […] Thus, without wishing to be bound to theory, the inventors hypothesise that PBT2 may influence bacterial iron homeostasis and trigger general defence mechanisms, such as Mtr-mediated antimicrobial efflux, but the Mtr-system may be unable to protect against PBT2.

[8] = tested on: Neisseria gonorrhoeae ATCC49226; test: MIC of PBT2 and comparators against CLSI reference strain; format: cell-based; conditions: ATCC49226, comparator antimicrobials
Source text: 13 multidrug resistant WHO strains of Neisseria gonorrhoeae were selected to cover antimicrobial resistance phenotypes to all the antibiotics currently used.

[9] = tested on: Neisseria gonorrhoeae ATCC49226; conditions: cited from earlier work

Compound: C=CC1=C(C(=O)O)N2C(=O)[C@@H](NC(=O)/C(=N\OCC(=O)O)c3csc(N)n3)[C@H]2SC1 [cefixime]
- resistance of WHO Z [1]: resistant

Compound: CC1(C)S[C@@H]2[C@H](NC(=O)Cc3ccccc3)C(=O)N2[C@H]1C(=O)O [penicillin G]
- resistance of WHO Z [1]: resistant

Compound: CC[C@H]1OC(=O)[C@H](C)[C@@H](O[C@H]2C[C@@](C)(OC)[C@@H](O)[C@H](C)O2)[C@H](C)[C@@H](O[C@@H]2O[C@H](C)C[C@H](N(C)C)[C@H]2O)[C@](C)(O)C[C@@H](C)CN(C)[C@H](C)[C@@H](O)[C@]1(C)O [azithromycin]
- resistance of WHO Z [1]: resistant

Compound: NC[C@H]1O[C@H](O[C@H]2[C@H](O)[C@@H](O[C@H]3O[C@H](CO)[C@@H](O)[C@H](N)[C@H]3O)[C@H](N)C[C@@H]2N)[C@H](O)[C@@H](O)[C@@H]1O [Kanamycin, reference compound]
- development of resistance to kanamycin (Neisseria gonorrhoeae): development of resistance

Compound: O=C(O)c1cn(C2CC2)c2cc(N3CCNCC3)c(F)cc2c1=O [Ciprofloxacin]
- resistance of WHO Z [1]: resistant

Compound: zinc [reference compound]
- antibacterial activity [2]: neither PBT2 nor zinc alone displayed antibacterial activity which would be suitable to treat an infection
- antibacterial activity [3]: neither PBT2 nor zinc alone displayed antibacterial activity which would be suitable to treat an infection
- antibacterial activity [4]: neither PBT2 nor zinc alone displayed antibacterial activity which would be suitable to treat an infection
- antibacterial activity [5]: neither PBT2 nor zinc alone displayed antibacterial activity which would be suitable to treat an infection

Compound: CO/N=C(\C(=O)N[C@@H]1C(=O)N2C(C(=O)O)=C(CSc3nc(=O)c(=O)[nH]n3C)CS[C@H]12)c1csc(N)n1 [ceftriaxone, reference compound]
- susceptibility of WHO Z ([6]; ceftriaxone positive control (0.5 mg/L)): susceptible
- p versus vehicle ([6]; survival at 24 h, FIG. 4, CRO 0.5 mg/L): < 0.0001
- resistance of WHO Z [1]: resistant

Compound: Triton X-100
- MIC of Triton X-100 ([7]; in the presence of 0.156 mg/L (sub-MIC) PBT2): 125 µg/mL
- MIC of Triton X-100 ([7]; without PBT2): > 1000 µg/mL

Compound: CN(C)[C@@H]1C(O)=C(C(N)=O)C(=O)[C@@]2(O)C(O)=C3C(=O)c4c(O)cccc4[C@@](C)(O)[C@H]3C[C@@H]12 [Tetracycline, reference compound]
- MIC ([8]; agar dilution): 0.25 µg/mL
- MIC ([8]; broth dilution): 0.25 µg/mL
- CLSI agar dilution MIC QC range [9]: 0.25 to 1 µg/mL
- resistance of WHO Z [1]: resistant
